Results from patent US20120263649A1, “DETECTION OF MYCOBACTERIA” (priority 2009, published 2012).

Columns and labels:
[1] = molecular target: Ag85A (Mycobacterium tuberculosis, UniProt P9WQP3); format: biochemical; conditions: ratio of peak height of mono-hexanoyl ester of labelled/derivatised Tre to peak height of labelled/derivatised Tre; 500 μM di-hexanoyl ester, 500 μM substrate, 100 nM enzyme, 1 mM TEA pH 7.2, 37° C; compound 1 (Tre) = 100
[2] = molecular target: Ag85B (Mycobacterium tuberculosis, UniProt P9WQP1); format: biochemical; conditions: ratio of peak height of mono-hexanoyl ester of labelled/derivatised Tre to peak height of labelled/derivatised Tre; 500 μM di-hexanoyl ester, 500 μM substrate, 100 nM enzyme, 1 mM TEA pH 7.2, 37° C; compound 1 (Tre) = 100
[3] = molecular target: Ag85C (Mycobacterium tuberculosis, UniProt P9WQN9); format: biochemical; conditions: ratio of peak height of mono-hexanoyl ester of labelled/derivatised Tre to peak height of labelled/derivatised Tre; 500 μM di-hexanoyl ester, 500 μM substrate, 100 nM enzyme, 1 mM TEA pH 7.2, 37° C; compound 1 (Tre) = 100
[4] = system: J774 Macrophages infected with H37Rv Mtb; experiment: FITC-Tre uptake into infected macrophages, confocal microscopy with anti-Mtb antibody; format: cell-based, murine; conditions: FIG. 7(j); antibody labelled with Alexa-594
Protocol: J774 Macrophages were grown to confluency on coverslips and then were infected with H37Rv Mtb (2-3 bacteria/macrophage). After 4 hours infection time, macrophages were washed to remove free bacteria and FITC-Tre was added in ethanol to desired concentrations (1 μM, 10 μM, 50 μM, 100 μM). Quantum dots (QDs) were treated in an analogous fashion and were added to a concentration of dots of (7 nm) with roughly 110 sugars/dot (1 μM effective sugar concentration) Uncoated QDs were utilized as a control. RFP expressing BCG was also treated in an identical fashion.
Cells were fixed at different timepoints utilizing the following procedure: Media was removed and cells were washed in PBS Buffer. Cells were then fixed in an aqueous solution of 5% formalin is phosphate buffered saline (PBS) for 15 minutes and then washed again using two 2-minute treatments with PBS (0.5 ml) for 2 min. […]
Images of stained cells were obtained by confocal microscopy (Leica SP2, Leica Microsystems, Exton, Pa.) using a 63× oil immersion objective NA 1.4. Multiple fields were sampled, and representative images were recorded. […] DAPI was first excited at 405 nm and emission spectrum was recorded (416 nm-482 nm) before the other fluorochromes were excited and emission spectrums recorded. Essential Sequential Z sections of stained cells were also recorded for generation of stacked images through cell. […]

Sequence of Ag85C (P9WQN9 46-340): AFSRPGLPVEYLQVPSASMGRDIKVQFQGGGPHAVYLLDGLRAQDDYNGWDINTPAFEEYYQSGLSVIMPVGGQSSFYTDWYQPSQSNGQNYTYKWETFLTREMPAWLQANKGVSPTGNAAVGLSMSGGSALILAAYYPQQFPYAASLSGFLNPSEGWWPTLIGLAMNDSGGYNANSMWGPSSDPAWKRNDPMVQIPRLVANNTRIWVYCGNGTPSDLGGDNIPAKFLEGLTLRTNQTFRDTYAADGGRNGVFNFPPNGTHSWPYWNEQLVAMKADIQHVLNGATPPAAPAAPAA
Sequence of Ag85B (P9WQP1 41-325): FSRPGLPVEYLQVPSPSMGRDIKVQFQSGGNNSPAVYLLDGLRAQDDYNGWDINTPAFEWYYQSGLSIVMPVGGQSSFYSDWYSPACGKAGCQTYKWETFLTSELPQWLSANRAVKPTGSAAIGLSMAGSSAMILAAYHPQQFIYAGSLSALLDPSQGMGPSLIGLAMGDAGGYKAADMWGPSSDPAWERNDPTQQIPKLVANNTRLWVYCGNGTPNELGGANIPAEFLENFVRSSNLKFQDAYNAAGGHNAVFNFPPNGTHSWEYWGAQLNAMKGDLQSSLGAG
Sequence of Ag85A (P9WQP3 44-338): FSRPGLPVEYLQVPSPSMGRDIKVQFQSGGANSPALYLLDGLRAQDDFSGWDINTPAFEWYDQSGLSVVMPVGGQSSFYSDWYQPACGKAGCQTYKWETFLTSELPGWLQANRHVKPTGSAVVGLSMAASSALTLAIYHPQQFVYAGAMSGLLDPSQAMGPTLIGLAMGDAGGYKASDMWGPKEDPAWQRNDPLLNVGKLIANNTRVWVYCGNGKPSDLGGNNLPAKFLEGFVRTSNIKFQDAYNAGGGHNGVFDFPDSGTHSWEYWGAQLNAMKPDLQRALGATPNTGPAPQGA

SMILES	Relative substrate response towards transesterification, Ag85A [1]	Relative substrate response towards transesterification, Ag85B [2]	Relative substrate response towards transesterification, Ag85C [3]	Colocalization of probe with anti-Mtb antibody signal in infected macrophages [4]
OC[C@H]1O[C@H](O[C@H]2O[C@H](CO)[C@@H](O)[C@H](O)[C@H]2O)[C@H](O)[C@@H](O)[C@@H]1O [Compound 1, trehalose, reference compound]	100	100	100	
C[C@]1(O[C@H]2OC(CO)[C@@H](O)C(O)C2O)OC(CO)[C@@H](O)C(O)C1O (stereo partly drawn) [Compound 2, 1-Deoxy-α-D-gluco-hept-2-ulopyranosyl-(2→1)-α-D-glucopyranoside]	32	13	111	
C[C@]1(O[C@H]2OC(CO)[C@@H](O)C(O)C2F)OC(CO)[C@@H](O)C(O)C1O (stereo partly drawn) [Compound 3, 1-Deoxy-α-D-gluco-hept-2-ulopyranosyl-(2→1)-2-deoxy-2-fluoro-α-D-glucopyranoside]	73	1415	102	
C[C@]1(O[C@H]2OC(CO)[C@@H](O)C(O)C2O)OC(CO)[C@H](O)C(O)C1O (stereo partly drawn) [Compound 4, 1-Deoxy-α-D-galacto-hept-2-ulopyranosyl-(2→1)-α-D-glucopyranoside]	12	7	57	
C[C@]1(O[C@H]2OC(CO)[C@@H](O)C(O)C2F)OC(CO)[C@H](O)C(O)C1O (stereo partly drawn) [Compound 5, 1-Deoxy-α-D-galacto-hept-2-ulopyranosyl-(2→1)-2-deoxy-2-fluoro-α-D-glucopyranoside]	19	13	64	
C[C@]1(O[C@H]2OC(CO)[C@@H](O)C(F)C2O)OC(CO)[C@@H](O)C(O)C1O (stereo partly drawn) [Compound 6, 1-Deoxy-α-D-gluco-hept-2-ulopyranosyl-(2→1)-3-fluoro-3-deoxy-α-D-glucopyranoside]	7	8	76	
C[C@]1(O[C@H]2OC(CO)[C@@H](O)C(O)C2N)OC(CO)[C@@H](O)C(O)C1O (stereo partly drawn) [Compound 7, 1-Deoxy-α-D-gluco-hept-2-ulopyranosyl-(2→1)-2-amino-2-deoxy-α-D-glucopyranoside]	47	56	91	
C[C@]1(O[C@H]2OC(CO)[C@@H](O)C(O)C2NC(=S)Nc2ccc(-c3c4ccc(=O)cc-4oc4cc(O)ccc34)c(C(=O)O)c2)OC(CO)[C@@H](O)C(O)C1O (stereo partly drawn) [Compound 9, 1-Deoxy-α-D-gluco-hept-2-ulopyranosyl-(2→1)-2-N-fluorescein-2-deoxy-α-D-glucopyranoside]	229	38	44	colocalization of FITC-Tre and antibody
OCC1O[C@H](O[C@@H]2CC(O)[C@H](O)C(CO)O2)CC(O)[C@@H]1O (stereo partly drawn) [Compound 10, 2′-Deoxy-α-D-arabino-hexopyranosyl-(1→1)-2-deoxy-α-D-arabino-hexopyranoside]	50	16	129	
OCC1O[C@H](O[C@@H]2CC(O)[C@@H](O)C(CO)O2)CC(O)[C@H]1O (stereo partly drawn) [Compound 11, 2′-Deoxy-α-D-lyxo-hexopyranosyl-(1→1)-2-deoxy-α-D-lyxo-hexopyranoside]	1	4	1	
OCC1O[C@H](O[C@H]2OC(CO)[C@@H](O)C(O)C2I)C(I)C(O)[C@@H]1O (stereo partly drawn) [Compound 12, 2′-Deoxy-2′-iodo-α-D-mannopyranosyl-(1→1)-2-deoxy-2-iodo-α-D-mannopyranoside]	148	54	166	
OCC1O[C@H](O[C@H]2OC(CO)[C@@H](O)C(O)C2F)C(F)C(O)[C@@H]1O (stereo partly drawn) [Compound 13, 2′-Deoxy-2′-fluoro-α-D-mannopyranosyl-(1→1)-2-deoxy-2-fluoro-α-D-mannopyranoside]	66	24	98	
OCC1O[C@H](O[C@@H]2OC(CO)[C@@H](O)C(O)C2F)C(F)C(O)[C@@H]1O (stereo partly drawn) [Compound 14, 2′-Deoxy-2′-fluoro-α-D-mannopyranosyl-(1→1)-2-deoxy-2-fluoro-β-D-mannopyranoside]	7	35	82	
O=P(O)(O)OCC1O[C@H](O[C@H]2OC(CO)[C@@H](O)C(O)C2O)C(O)C(O)[C@@H]1O (stereo partly shown) [Compound 15, Trehalose-6-phosphate]	6	4	28	
COP(=O)(O)OCC1O[C@H](O[C@H]2OC(CO)[C@@H](O)C(O)C2O)C(O)C(O)[C@@H]1O (stereo partly drawn) [Compound 16, 6-O-monomethoxyphosphoryl-D-trehalose]	37	24	113	
O=P1(O)OCC2O[C@H](O[C@H]3OC(CO)[C@@H](O)C(O)C3O)C(O)C(O)[C@@H]2O1 (stereo partly drawn) [Compound 17, 4,6-(monohydrogen)phosphoryl-D-trehalose]	18	17	94	
[N-]=[N+]=NCC1O[C@H](O[C@H]2OC(CO)[C@@H](O)C(O)C2O)C(O)C(O)[C@@H]1O (stereo partly drawn) [Compound 18, 6-Azido-D-trehalose]	37	13	64	
OCC1O[C@H](O[C@H]2OC(CBr)[C@@H](O)C(O)C2O)C(O)C(O)[C@@H]1O (stereo partly drawn) [Compound 19, 6-deoxy-6-bromo-α-D-glucopyranosyl-α-D-glucopyranoside]	102	92	99	
OCC1O[C@H](O[C@H]2OC(CF)[C@@H](O)C(O)C2O)C(O)C(O)[C@@H]1O (stereo partly drawn) [Compound 20, 6-deoxy-6-fluoro-α-D-glucopyranosyl-α-D-glucopyranoside]	149	412	91	
OC[C@H]1O[C@H](O[C@H]2O[C@H](CO)[C@H](F)[C@H](O)[C@H]2O)[C@H](O)[C@@H](O)[C@@H]1O [Compound 21, 4-deoxy-4-fluoro-α-D-galactopyranosyl α-D-glucopyranoside]	229	412	91	
